Reference: ChEMBL document CHEMBL4152276, “Design, synthesis and biological evaluation of N-phenyl-(2,4-dihydroxypyrimidine-5-sulfonamido)benzoyl hydrazide derivatives as thymidylate synthase (TS) inhibitors and as potential antitumor drugs” (Eur J Med Chem, 2018)

Assays:
[1] = tested on: MDA-MB-231; assay: Antiproliferative activity against human MDA-MB-231 cells after 24 hrs by MTT assay; assay type: functional, cell-based; conditions: MDA-MB-231, 24 h
[2] = tested on: A549; assay: Antiproliferative activity against human A549 cells after 24 hrs by MTT assay; assay type: functional, cell-based; conditions: A549, 24 h
[3] = tested on: OVCAR-3; assay: Antiproliferative activity against human OVCAR3 cells after 24 hrs by MTT assay; assay type: functional, cell-based; conditions: OVCAR-3, 24 h
[4] = tested on: SGC-7901; assay: Antiproliferative activity against human SGC7901 cells after 24 hrs by MTT assay; assay type: functional, cell-based; conditions: SGC-7901, 24 h
[5] = tested on: A549; assay: Antiproliferative activity against human A549 cells at 0.512 uM after 24 hrs by MTT assay relative to control; assay type: functional
[6] = tested on: A549; assay: Antiproliferative activity against human A549 cells at 8 uM after 24 hrs by MTT assay relative to control; assay type: functional
[7] = Selectivity index, ratio of CC50 for human HTB125 cells to IC50 for human A549 cells; assay type: toxicity; conditions: HTB125 cells (CC50) versus A549 cells (IC50)
[8] = tested on: A549; assay: Antiproliferative activity against human A549 cells at 20 uM after 24 hrs by MTT assay relative to control; assay type: functional
[9] = Selectivity index, ratio of CC50 for human GES1 cells to IC50 for human A549 cells; assay type: toxicity; conditions: GES1 cells (CC50) versus A549 cells (IC50)
[10] = Selectivity index, ratio of CC50 for HPAEpiC to IC50 for human A549 cells; assay type: toxicity; conditions: HPAEpiC cells (CC50) versus A549 cells (IC50)
[11] = tested on: A549; assay: Antiproliferative activity against human A549 cells at 3.2 uM after 24 hrs by MTT assay relative to control; assay type: functional
[12] = tested on: A549; assay: Antiproliferative activity against human A549 cells at 1.28 uM after 24 hrs by MTT assay relative to control; assay type: functional
[13] = Selectivity index, ratio of CC50 for human IOSE80 cells to IC50 for human A549 cells; assay type: toxicity; conditions: IOSE80 cells (CC50) versus A549 cells (IC50)

| IC50 [1] [µM] | IC50 [2] [µM] | IC50 [3] [µM] | IC50 [4] [µM] | SMILES | further results |
| --- | --- | --- | --- | --- | --- |
| > 20 | 10.8 | 10.8 | > 20 | O=C(NNC(=O)c1ccccc1F)c1cccc(NS(=O)(=O)c2cnc(O)nc2O)c1 | – |
| 4.01 | 3.34 | 7.23 | 3.63 | O=C(NNc1ccccc1Cl)c1ccc(NS(=O)(=O)c2cnc(O)nc2O)cc1 | – |
| 2.36 | 3.74 | 7.3 | 6.07 | O=C(NNC(=O)c1ccccc1Cl)c1cccc(NS(=O)(=O)c2cnc(O)nc2O)c1 | – |
| 8.31 | 5.29 | 18.2 | 2.41 | O=C(NNC(=O)c1ccccc1NS(=O)(=O)c1cnc(O)nc1O)c1ccccc1Cl | – |
| > 20 | > 20 | > 20 | > 20 | Cc1cccc(NNC(=O)c2cccc(NS(=O)(=O)c3cnc(O)nc3O)c2)c1 | – |
| > 20 | > 20 | > 20 | > 20 | Cc1cccc(NNC(=O)c2ccc(NS(=O)(=O)c3cnc(O)nc3O)cc2)c1 | – |
| 17.4 | 7.29 | 8.41 | 11.6 | O=C(NNc1cccc(Cl)c1)c1ccc(NS(=O)(=O)c2cnc(O)nc2O)cc1 | – |
| > 20 | 14.2 | > 20 | > 20 | Cc1ccccc1NNC(=O)c1cccc(NS(=O)(=O)c2cnc(O)nc2O)c1 | – |
| > 20 | > 20 | > 20 | > 20 | Cc1cccc(NNC(=O)c2ccccc2NS(=O)(=O)c2cnc(O)nc2O)c1 | – |
| 4.16 | 2.29 | 7.71 | 8.61 | O=C(NNC(=O)c1cccc(Cl)c1)c1ccc(NS(=O)(=O)c2cnc(O)nc2O)cc1 | – |
| 3.85 | 3.31 | 6.9 | 9.08 | Nc1nc2[nH]cc(CCc3ccc(C(=O)N[C@@H](CCC(=O)O)C(=O)O)cc3)c2c(=O)[nH]1 [PEMETREXED] | Activity [5]: 22.93%; Activity [6]: 61.82%; selectivity ratio [7]: 6.02; Activity [8]: 64.42%; selectivity ratio [9]: 3.22; selectivity ratio [10]: 7.51; Activity [11]: 56.2%; Activity [12]: 49.43%; selectivity ratio [13]: 3.59 |
| 13.9 | 1.9 | 5.22 | 3.24 | O=C(NNC(=O)c1ccccc1Cl)c1ccc(NS(=O)(=O)c2cnc(O)nc2O)cc1 | – |
| > 20 | 7.15 | 15.3 | > 20 | O=C(NNC(=O)c1ccccc1NS(=O)(=O)c1cnc(O)nc1O)c1ccccc1F | – |
| 5.57 | 5.45 | > 20 | 13 | Cc1ccccc1C(=O)NNC(=O)c1ccccc1NS(=O)(=O)c1cnc(O)nc1O | – |
| > 20 | > 20 | > 20 | > 20 | O=C(NNc1ccc(F)cc1)c1cccc(NS(=O)(=O)c2cnc(O)nc2O)c1 | – |
| 3.18 | 6 | 13.5 | 7.31 | O=C(NNC(=O)c1cccc(NS(=O)(=O)c2cnc(O)nc2O)c1)c1cccc(Cl)c1 | – |
| > 20 | 14.5 | > 20 | > 20 | Cc1ccccc1NNC(=O)c1ccc(NS(=O)(=O)c2cnc(O)nc2O)cc1 | – |
| 18.1 | 8.01 | > 20 | > 20 | Cc1ccccc1C(=O)NNC(=O)c1cccc(NS(=O)(=O)c2cnc(O)nc2O)c1 | – |
| > 20 | > 20 | > 20 | 10.1 | Cc1ccc(C(=O)NNC(=O)c2cccc(NS(=O)(=O)c3cnc(O)nc3O)c2)cc1 | – |
| > 20 | > 20 | > 20 | > 20 | Cc1ccccc1NNC(=O)c1ccccc1NS(=O)(=O)c1cnc(O)nc1O | – |

Further lines, the molecule ahead of its results:

| SMILES | IC50 [1] [µM] | IC50 [2] [µM] | IC50 [3] [µM] | IC50 [4] [µM] | further results |
| --- | --- | --- | --- | --- | --- |
| O=C(NNC(=O)c1ccccc1NS(=O)(=O)c1cnc(O)nc1O)c1ccc(F)cc1 | > 20 | > 20 | 15.1 | > 20 | – |
| O=C(NNC(=O)c1ccc(NS(=O)(=O)c2cnc(O)nc2O)cc1)c1ccc(F)cc1 | > 20 | > 20 | > 20 | > 20 | – |
| O=C(NNc1cccc(Cl)c1)c1cccc(NS(=O)(=O)c2cnc(O)nc2O)c1 | 7.76 | 6.64 | 8.04 | 11.8 | – |
| Cc1ccccc1C(=O)NNC(=O)c1ccc(NS(=O)(=O)c2cnc(O)nc2O)cc1 | 7.04 | 15.1 | > 20 | > 20 | – |
| CCCCOc1ccc(C(=O)NNC(=O)c2ccc(NS(=O)(=O)c3cnc(O)nc3O)cc2)cc1 | 11.9 | 9.01 | 12.8 | 14.7 | – |
| Cc1ccc(C(=O)NNC(=O)c2ccccc2NS(=O)(=O)c2cnc(O)nc2O)cc1 | > 20 | > 20 | 12.9 | 15.5 | – |
| O=C(NNc1ccccc1F)c1ccc(NS(=O)(=O)c2cnc(O)nc2O)cc1 | > 20 | 11.7 | > 20 | 16 | – |
| O=C(NNC(=O)c1ccccc1F)c1ccc(NS(=O)(=O)c2cnc(O)nc2O)cc1 | > 20 | 7.61 | 16 | > 20 | – |
| O=C(NNc1ccc(F)cc1)c1ccccc1NS(=O)(=O)c1cnc(O)nc1O | > 20 | > 20 | > 20 | > 20 | – |
| CCCCOc1ccc(C(=O)NNC(=O)c2ccccc2NS(=O)(=O)c2cnc(O)nc2O)cc1 | 6.83 | 4.96 | 5.01 | 6.89 | – |
| O=C(NNc1cccc(Cl)c1)c1ccccc1NS(=O)(=O)c1cnc(O)nc1O | 11.8 | 5.29 | 5.52 | 10.8 | – |
| O=C(NNC(=O)c1cccc(NS(=O)(=O)c2cnc(O)nc2O)c1)c1ccc(F)cc1 | > 20 | > 20 | > 20 | > 20 | – |
| O=C(NNc1ccc(F)cc1)c1ccc(NS(=O)(=O)c2cnc(O)nc2O)cc1 | > 20 | > 20 | > 20 | > 20 | – |
| CCCCOc1ccc(C(=O)NNC(=O)c2cccc(NS(=O)(=O)c3cnc(O)nc3O)c2)cc1 | 17 | 7.76 | 9.2 | 7.37 | – |
| O=C(NNc1ccccc1F)c1cccc(NS(=O)(=O)c2cnc(O)nc2O)c1 | > 20 | 11.1 | 17 | > 20 | – |
| Cc1ccc(C(=O)NNC(=O)c2ccc(NS(=O)(=O)c3cnc(O)nc3O)cc2)cc1 | > 20 | 15.9 | > 20 | > 20 | – |
| O=C(NNc1ccccc1F)c1ccccc1NS(=O)(=O)c1cnc(O)nc1O | > 20 | 9.61 | 9.57 | > 20 | – |
| O=C(NNc1ccccc1Cl)c1cccc(NS(=O)(=O)c2cnc(O)nc2O)c1 | 2.09 | 1.46 | 3.35 | 2.27 | – |
| O=C(NNc1ccccc1Cl)c1ccccc1NS(=O)(=O)c1cnc(O)nc1O | 18.9 | 5.48 | 14.1 | > 20 | – |
